The assay has as its target T1, PD-1-Ig binding to PD-L1-TVMV-His (PD-L1-His) (Homo sapiens, UniProt Q9NZQ7).
T1 construct: hPDL1(19-239)-TVMV-His; TVMV protease cleavage site (C); made in house; host or cells: HEK293T cells
The assay is described as follows: PD-1/PD-L1 Homogenous Time-Resolved Fluorescence (HTRF) binding assay. The settings on record: PD-1-Ig (20 nM) / PD-L1-His (10 nM); range classes; read-out: LE HTRF hPD1 hPDL1 IC50. An excerpt:
Methods for Testing the Ability of Macrocyclic Peptides to Compete for the Binding of Pd-1 to Pd-L1 Using Homogenous Time-Resolved Fluorescence (HTRF) Binding Assays
The ability of the macrocyclic peptides of the present disclosure to bind to PD-L1 was investigated using a PD-1/PD-L1 Homogenous Time-Resolved Fluorescence (HTRF) binding assay.
Homogenous Time-Resolved Fluorescence (HTRF) Assays of Binding of Soluble PD-1 to Soluble PD-L1. Soluble PD-1 and soluble PD-L1 refers to proteins with carboxyl-end truncations that remove the transmembrane-spanning regions and are fused to heterologous sequences, specifically the Fc portion of the human immunoglobuling G sequence (Ig) or the hexahistidine epitope tag (His). All binding studies were performed in an HTRF assay buffer consisting of dPBS supplemented with 0.1% (w/v) bovine serum albumin and 0.05% (v/v) Tween-20. For the PD-1-Ig/PD-L1-His binding assay, inhibitors were pre-incubated with PD-L1-His (10 nM final) for 15 m in 4 μl of assay buffer, followed by addition of PD-1-Ig (20 nM final) in 1 μl of assay buffer and further incubation for 15 m. PD-L1 fusion proteins from either human, cynomologous macaques, mouse, or other species were used. HTRF detection was achieved using europium crypate-labeled anti-Ig monoclonal antibody (1 nM final) and allophycocyanin (APC) labeled anti-His monoclonal antibody (20 nM final). Antibodies were diluted in HTRF detection buffer and 5 μl was dispensed on top of binding reaction. The reaction was allowed to equilibrate for 30 minutes and signal (665 nm/620 nm ratio) was obtained using an EnVision fluorometer. Additional binding assays were established between PD-1-Ig/PD-L2-His (20 and 5 nM, respectively), CD80-His/PD-L1-Ig (100 and 10 nM, respectively) and CD80-His/CTLA4-Ig (10 and 5 nM, respectively). Binding/competition studies between biotinylated Compound No. 71 and human PD-L1-His were performed as follows. Macrocyclic peptide inhibitors were pre-incubated with PD-L1-His (10 nM final) for 60 minutes in 4 μl of assay buffer followed by addition of biotinylated Compound No. 71 (0.5 nM final) in 1 μl of assay buffer. Binding was allowed to equilibrate for 30 minutes followed by addition of europium crypated labeled Streptavidin (2.5 pM final) and APC-labeled anti-His (20 nM final) in 5 μl of HTRF buffer. The reaction was allowed to equilibrate for 30 m and signal (665 nm/620 nm ratio) was obtained using an EnVision fluorometer.
Recombinant Proteins. Carboxyl-truncated human PD-1 (amino acids 25-167) with a C-terminal human Ig epitope tag [hPD-1 (25-167)-3S-IG] and human PD-L1 (amino acids 18-239) with a C-terminal His epitope tag [hPD-L1(19-239)-tobacco vein mottling virus protease cleavage site (TVMV)-His] were expressed in HEK293T cells and purified sequentially by recombinant Protein A affinity chromatography and size exclusion chromatography. Human PD-L2-His (Sino Biologicals), CD80-His (Sino Biologicals), CTLA4-Ig (RnD Systems) were all obtained through commercial sources.
Ranges are as follows: A=0.010-0.060 μM; B=0.0011-0.009 μM; C=0.0003-0.0010 μM.
For orientation: TR-FRET usually uses a lanthanide donor and a delayed reading to cut background.

Starred links: 1 amine or outer side, 2 acyl side, 3 side chain; linkers in the order of their positions; H or OH if unused. Positions of bridges follow the written chain, without caps; N, C: chain ends. Non-standard residues stand in square brackets, D forms with d. Residues, ends and D or L forms follow the SMILES beside them. *: point of attachment. X3 = O=C(O)CCCCCCCCCCCCCCCCC(=O)N[C@@H](CCC(=O)NCCCOCCOCCOCCCN*)C(=O)O; Trp(1-CH2CONHSO2Me) = CS(=O)(=O)NC(=O)Cn1cc(C[C@H](N)C(=O)O)c2ccccc21; X1 = O=C(O)CCCCCCCCCCCCCCC(=O)N[C@@H](CCC(=O)NCCCOCCOCCOCCCN*)C(=O)O; Trp(4-aza,1-CH2COOH) = N[C@@H](Cc1cn(CC(=O)O)c2cccnc12)C(=O)O; Trp(1-CH2CO2Me) = COC(=O)Cn1cc(C[C@H](N)C(=O)O)c2ccccc21; X6 = COc1ccc2c(c1)c(C[C@H](N[*:1])C(=O)[*:2])cn2CC(=O)O; X2 = O=C(O)Cn1cc(C[C@@H](N[*:1])C(=O)[*:2])c2cccnc21; Hyp = O=C(O)[C@@H]1C[C@@H](O)CN1; NMeNle = CCCC[C@H](NC)C(=O)O; NMeA = CN[C@@H](C)C(=O)O; Dab = NCC[C@H](N)C(=O)O; Dap = NC[C@H](N)C(=O)O; Sar = CNCC(=O)O

T1 sequence (Q9NZQ7 with tags, fused parts or gaps): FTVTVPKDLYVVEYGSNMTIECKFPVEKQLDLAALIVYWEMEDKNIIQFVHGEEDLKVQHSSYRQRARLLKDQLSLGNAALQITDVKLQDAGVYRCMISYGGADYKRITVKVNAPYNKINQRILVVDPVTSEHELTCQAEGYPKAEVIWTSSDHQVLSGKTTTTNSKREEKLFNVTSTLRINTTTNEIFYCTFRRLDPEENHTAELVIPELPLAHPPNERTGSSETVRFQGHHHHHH

As for `CCCC[C@H]1C(=O)N(C)[C@@H](CCCC)C(=O)N[C@@H](CC(C)C)C(=O)N[C@H](C(=O)NCC(=O)N[C@@H](CC(=O)NCCCOCCOCCOCCCNC(=O)CC[C@H](NC(=O)CCCCCCCCCCCCCCCCC(=O)O)C(=O)O)C(=O)O)CSCC(=O)N[C@@H](Cc2ccc(O)cc2)C(=O)N(C)[C@@H](C)C(=O)N[C@@H](CC(N)=O)C(=O)N2CCC[C@H]2C(=O)N[C@@H](CN)C(=O)N[C@@H](CC(C)C)C(=O)N2C[C@H](O)C[C@H]2C(=O)N[C@@H](Cc2c[nH]c3ccccc23)C(=O)N[C@@H](CCN)C(=O)N[C@@H](Cc2cn(CC(=O)O)c3ccc(OC)cc23)C(=O)N1C` [Example 12] ({CH2CO}-Y[NMeA]NP[Dap]L[Hyp]W[Dab][X6][NMeNle][NMeNle]LCGD(X3)-OH; thioether N-14), the IC50 (commonly the midpoint of a concentration-inhibition curve) was 0.3 to 1 nM. For `CCCC[C@H]1C(=O)N(C)[C@@H](CCCC)C(=O)N[C@@H](CC(C)C)C(=O)N[C@H](C(=O)NCC(=O)NCCCOCCOCCOCCCNC(=O)CC[C@H](NC(=O)CCCCCCCCCCCCCCCCC(=O)O)C(=O)O)CSCC(=O)N[C@@H](Cc2ccc(O)cc2)C(=O)N(C)[C@@H](C)C(=O)N[C@@H](CC(N)=O)C(=O)N(C)CC(=O)N[C@@H](CN)C(=O)N[C@@H](CC(C)C)C(=O)N2C[C@H](O)C[C@H]2C(=O)N[C@@H](Cc2c[nH]c3ccccc23)C(=O)N[C@@H](CCN)C(=O)N[C@@H](Cc2cn(CC(=O)NS(C)(=O)=O)c3ccccc23)C(=O)N1C` [Example 4] ({CH2CO}-Y[NMeA]N[Sar][Dap]L[Hyp]W[Dab][Trp(1-CH2CONHSO2Me)][NMeNle][NMeNle]LCG-X3; thioether N-14), the IC50 was in the range of 1.1 to 9 nM. Take `CCCC[C@H]1C(=O)N(C)[C@@H](CCCC)C(=O)N[C@@H](CC(C)C)C(=O)N[C@H](C(=O)NCC(=O)N[C@@H](CC(=O)NCCCOCCOCCOCCCNC(=O)CC[C@H](NC(=O)CCCCCCCCCCCCCCCCC(=O)O)C(=O)O)C(=O)O)CSCC(=O)N[C@@H](Cc2ccc(O)cc2)C(=O)N(C)[C@@H](C)C(=O)N[C@@H](CC(N)=O)C(=O)N2CCC[C@H]2C(=O)N[C@@H](CN)C(=O)N[C@@H](CC(C)C)C(=O)N2C[C@H](O)C[C@H]2C(=O)N[C@@H](Cc2c[nH]c3ccccc23)C(=O)N[C@@H](CCN)C(=O)N[C@@H](Cc2cn(CC(=O)O)c3cccnc23)C(=O)N1C` [Example 7] ({CH2CO}-Y[NMeA]NP[Dap]L[Hyp]W[Dab][Trp(4-aza,1-CH2COOH)][NMeNle][NMeNle]LCGD(X3)-OH; thioether N-14): the IC50 was in the range of 1.1 to 9 nM. In the case of `CCCC[C@H]1C(=O)N(C)[C@@H](CCCC)C(=O)N[C@@H](CC(C)C)C(=O)N[C@H](C(=O)NCC(=O)N[C@@H](Cc2cn(CCOCCOCCOCCOCCOCCOCCOCCOCCOCCOCCOCCNC(=O)CCC(NC(=O)CCCCCCCCCCCCCCCCC(=O)O)C(=O)O)nn2)C(=O)O)CSCC(=O)N[C@@H](Cc2ccc(O)cc2)C(=O)N(C)[C@@H](C)C(=O)N[C@@H](CC(N)=O)C(=O)N2CCC[C@H]2C(=O)N[C@@H](CN)C(=O)N[C@@H](CC(C)C)C(=O)N2C[C@H](O)C[C@H]2C(=O)N[C@@H](Cc2c[nH]c3ccccc23)C(=O)N[C@@H](CCN)C(=O)N[C@@H](Cc2cn(CC(=O)O)c3cccnc23)C(=O)N1C` (stereo partly drawn) [Example 28] it was 10 to 60 nM. With `CCCC[C@H]1C(=O)N(C)[C@@H](CCCC)C(=O)N[C@@H](CC(C)C)C(=O)N[C@H](C(=O)NCC(=O)N[C@@H](CC(=O)NCCCOCCOCCOCCCNC(=O)CC[C@H](NC(=O)CCCCCCCCCCCCCCC(=O)O)C(=O)O)C(=O)O)CSCC(=O)N[C@@H](Cc2ccc(O)cc2)C(=O)N(C)[C@@H](C)C(=O)N[C@@H](CC(N)=O)C(=O)N2CCC[C@H]2C(=O)N[C@@H](CN)C(=O)N[C@@H](CC(C)C)C(=O)N2C[C@H](O)C[C@H]2C(=O)N[C@@H](Cc2c[nH]c3ccccc23)C(=O)N[C@@H](CCN)C(=O)N[C@H](Cc2cn(CC(=O)O)c3ncccc23)C(=O)N1C` [Example 20] ({CH2CO}-Y[NMeA]NP[Dap]L[Hyp]W[Dab][X2][NMeNle][NMeNle]LCGD(X1)-OH; thioether N-14) the figure was 10 to 60 nM; with `CCCC[C@H]1C(=O)N(C)[C@@H](CCCC)C(=O)N[C@@H](CC(C)C)C(=O)N[C@H](C(=O)NCC(=O)N[C@@H](CC(=O)NCCCOCCOCCOCCCNC(=O)CC[C@H](NC(=O)CCCCCCCCCCCCCCC(=O)O)C(=O)O)C(=O)O)CSCC(=O)N[C@@H](Cc2ccc(O)cc2)C(=O)N(C)[C@@H](C)C(=O)N[C@@H](CC(N)=O)C(=O)N2CCC[C@H]2C(=O)N[C@@H](CN)C(=O)N[C@@H](CC(C)C)C(=O)N2C[C@H](O)C[C@H]2C(=O)N[C@@H](Cc2c[nH]c3ccccc23)C(=O)N[C@@H](CCN)C(=O)N[C@@H](Cc2cn(CC(=O)NS(C)(=O)=O)c3ccccc23)C(=O)N1C` [Example 15] ({CH2CO}-Y[NMeA]NP[Dap]L[Hyp]W[Dab][Trp(1-CH2CONHSO2Me)][NMeNle][NMeNle]LCGD(X1)-OH; thioether N-14), 1.1 to 9 nM; with `CCCC[C@H]1C(=O)N(C)[C@@H](CCCC)C(=O)N[C@@H](CC(C)C)C(=O)N[C@H](C(=O)NCC(=O)N[C@@H](Cc2cn(CCOCCOCCOCCOCCOCCOCCOCCOCCOCCOCCOCCNC(=O)CC[C@H](NC(=O)CCCCCCCCCCCCCCCCC(=O)O)C(=O)O)nn2)C(=O)O)CSCC(=O)N[C@@H](Cc2ccc(O)cc2)C(=O)N(C)[C@@H](C)C(=O)N[C@@H](CC(N)=O)C(=O)N2CCC[C@H]2C(=O)N[C@@H](CN)C(=O)N[C@@H](CC(C)C)C(=O)N2C[C@H](O)C[C@H]2C(=O)N[C@@H](Cc2c[nH]c3ccccc23)C(=O)N[C@@H](CCN)C(=O)N[C@@H](Cc2nn(CC(=O)OC)c3ccccc23)C(=O)N1C` [Example 23], 0.3 to 1 nM. With `CCCC[C@H]1C(=O)N(C)[C@@H](CCCC)C(=O)N[C@@H](CC(C)C)C(=O)N[C@H](C(=O)NCC(=O)N[C@@H](CC(=O)NCCCOCCOCCOCCCNC(=O)CC[C@H](NC(=O)CCCCCCCCCCCCCCC(=O)O)C(=O)O)C(=O)O)CSCC(=O)N[C@@H](Cc2ccc(O)cc2)C(=O)N(C)[C@@H](C)C(=O)N[C@@H](CC(N)=O)C(=O)N2CCC[C@H]2C(=O)N[C@@H](CN)C(=O)N[C@@H](CC(C)C)C(=O)N2C[C@H](O)C[C@H]2C(=O)N[C@@H](Cc2c[nH]c3ccccc23)C(=O)N[C@@H](CCN)C(=O)N[C@@H](Cc2cn(CC(=O)OC)c3ccccc23)C(=O)N1C` [Example 16] ({CH2CO}-Y[NMeA]NP[Dap]L[Hyp]W[Dab][Trp(1-CH2CO2Me)][NMeNle][NMeNle]LCGD(X1)-OH; thioether N-14) the figure was 1.1 to 9 nM; with `CCCC[C@H]1C(=O)N(C)[C@@H](CCCC)C(=O)N[C@@H](CC(C)C)C(=O)N[C@H](C(=O)NCC(=O)N[C@@H](Cc2cn(CCOCCOCCOCCOCCOCCOCCOCCOCCOCCOCCOCCNC(=O)CC[C@H](NC(=O)CCCCCCCCCCCCCCCCC(=O)O)C(=O)O)nn2)C(=O)O)CSCC(=O)N[C@@H](Cc2ccc(O)cc2)C(=O)N(C)[C@@H](C)C(=O)N[C@@H](CC(N)=O)C(=O)N2CCC[C@H]2C(=O)N[C@@H](CN)C(=O)N[C@@H](CC(C)C)C(=O)N2C[C@H](O)C[C@H]2C(=O)N[C@@H](Cc2c[nH]c3ccccc23)C(=O)N[C@@H](CCN)C(=O)N[C@@H](Cc2cn(CC(=O)NS(C)(=O)=O)c3ccccc23)C(=O)N1C` [Example 30], 1.1 to 9 nM.

The values are drawn from patent publication US11066445B2, “Immunomodulators acting as antagonists of PD-1” (Bristol-Myers Squibb Company, priority 2017, dated 2021).
